According to PMC7211037 (Journal of bone and mineral research : the official journal …, 2016):

Assays:
CaSR [1] = biological target: T1, CaSR (Homo sapiens, UniProt P41180); assay: Intracellular calcium mobilization assay in HEK-CaSR cells; type: cell-based; conditions: for Maximal response of Ca^2+ (intracellular Ca^2+): normalized to 7.49 mM Ca^2+ + vehicle in pcDNA3.1 cells
T1 sequence (P41180 20-536 limits assumed): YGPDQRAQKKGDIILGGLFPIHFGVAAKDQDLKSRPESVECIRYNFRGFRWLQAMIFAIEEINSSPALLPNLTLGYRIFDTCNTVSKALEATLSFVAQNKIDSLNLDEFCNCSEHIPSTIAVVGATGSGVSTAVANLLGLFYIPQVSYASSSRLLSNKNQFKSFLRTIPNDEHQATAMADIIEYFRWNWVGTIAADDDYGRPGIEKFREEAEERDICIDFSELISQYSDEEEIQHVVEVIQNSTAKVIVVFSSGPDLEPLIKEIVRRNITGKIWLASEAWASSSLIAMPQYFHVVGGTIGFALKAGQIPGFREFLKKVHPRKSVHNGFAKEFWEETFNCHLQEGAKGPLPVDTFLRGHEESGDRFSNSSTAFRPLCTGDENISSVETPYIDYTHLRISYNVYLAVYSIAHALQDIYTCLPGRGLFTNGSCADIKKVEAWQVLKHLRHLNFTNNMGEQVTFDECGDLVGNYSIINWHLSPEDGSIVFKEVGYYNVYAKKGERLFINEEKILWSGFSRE

CaSR [2] = biological target: T1, CaSR; assay: cAMP accumulation assay in HEK-CaSR cells; type: cell-based; conditions: 3 mM Ca^2+; GPR64ΔNTF-transfected HEK-CaSR cells (Fig. 7C)
[3] = system: human parathyroid adenoma cells; assay: PTH secretion from freshly isolated parathyroid adenoma cells; type: cell-based; conditions: increasing concentrations of Ca^2+, 30 min at 37°C; normalized to vehicle in 0.5 mM Ca^2+; representative of five independent experiments
CaSR [4] = biological target: T1, CaSR; conditions: patients; cited from earlier work
[5] = full-length GPR64-transfected HEK-CaSR cells, vehicle, mean ± SE

Row | Structure (SMILES) | Hill slope of Ca^2+ (intracellular Ca^2+) (CaSR [1]; [5]) | pEC50 of Ca^2+ (intracellular Ca^2+) (CaSR [1]; [5]) | Maximal response of Ca^2+ (intracellular Ca^2+) (CaSR [1]; [5]) [%] | Maximal response of Ca^2+ (intracellular Ca^2+) (CaSR [1]; pcDNA3.1-transfected HEK-CaSR cells, vehicle, mean ± SE) [%] | Intracellular Ca^2+ levels (in words) (CaSR [1]; vehicle-treated pcDNA3.1-transfected HEK-CaSR cells) | cAMP level with Ca^2+ (in words) (CaSR [2]) | PTH secretion (in words) [3] | Serum Ca^2+ normalization (in words) (CaSR [4])
1 | [Ca+2].[Cl-].[Cl-] [Ca^2+, calcium chloride] | 2.915 ± 0.159 | 3.566 ± 0.010 | 101.70 ± 0.762 | 101.5 ± 1.177 | elevated the intracellular Ca^2+ levels in a concentration-dependent manner | reduced this effect, the cAMP level was still higher than that of cells transfected with empty vector in normocalcemic conditions | suppressed PTH secretion in a dose-dependent manner | 
2 | C[C@@H](NCCCc1cccc(C(F)(F)F)c1)c1cccc2ccccc12 [cinacalcet] |  |  |  |  |  |  |  | normalize the serum Ca^2+ in a significant percentage of patients
